Assay results taken from the METLIN SMRT retention time set (Domingo-Almenara et al. 2019).

Experiment: gradient 5% acetonitrile 3 min, to 50% in 2 min, to 85% in 15 min, held 3 min, 100 µL/min
Settings: column: Zorbax Extend-C18 2.1 x 50 mm; eluents: water / acetonitrile, 0.1% formic acid
Procedure, shortened: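 Over 3 months, pure standards in mixtures of ~100 molecules were run by HPLC coupled to a quadrupole time-of-flight mass spectrometer in positive and negative ionization mode. The column was a Zorbax Extend-C18 (2.1 × 50 mm, 1.8 μm) at 100 μL/min, eluted with water and acetonitrile each holding 0.1% formic acid, with 40 μL dead and 900 μL dwell volumes. Retention time was determined from adduct peaks chosen by software and checked manually.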

CCn1c(=O)c2ccccc2n(Cc2nc(-c3cccc(C)c3)no2)c1=O
RP-LC retention time: 1070 s

Cn1c(=O)c(N2CCC(C(=O)NCc3cccs3)CC2)nc2ccccc21
RP-LC retention time: 805 s

CCn1cc(-c2nc(CC(=O)Nc3ccc(C#N)cc3)cs2)c2cccnc21
RP-LC retention time: 879 s

CCC(Sc1nc(=O)cc(N)n1CCc1ccccc1)C(=O)Nc1nc(-c2ccccc2)cs1 (centres undefined)
RP-LC retention time: 878 s

COCCn1cc(CCNC(=O)Nc2c(C)cccc2C)c2cccnc21
RP-LC retention time: 686 s

O=C(CS(=O)Cc1cnn(-c2ccccc2)c1-n1cccc1)NCc1cccc(Br)c1 (centres undefined)
RP-LC retention time: 830 s

O=C([C@@H]1C[C@H](F)CN1C(=O)Nc1ccc(F)cc1)N1CCOCC1
RP-LC retention time: 608 s

CCOC(=O)Cc1ccc(NC(=O)NC(C)C(=O)N2CCc3ccccc32)cc1 (centres undefined)
RP-LC retention time: 857 s

CC(C)Oc1ccc(-c2noc(Cn3ccn(-c4ccc(Cl)cc4)c(=O)c3=O)n2)cc1
RP-LC retention time: 973 s

Cc1ccc(Sc2nccnc2N2CCC(C(=O)N3CCN(c4ccccc4C)CC3)CC2)cc1
RP-LC retention time: 1330 s

Cc1c(C(=O)N(C)C)cc(-c2ccccc2)n1C
RP-LC retention time: 812 s

CC1Cn2cc(C(=O)NCCN3CCN(C)CC3)c(=O)c3c(Cl)ccc(c32)O1 (centres undefined)
RP-LC retention time: 590 s

CN1C(=O)c2cc(C(=O)NCc3ccc(F)cc3)nn2CC1(C)C(=O)NC1CCCC1 (centres undefined)
RP-LC retention time: 747 s

Cn1nc(-c2nnc(-c3ccccc3)o2)c2c1CCN(S(=O)(=O)c1cccc3nsnc13)C2
RP-LC retention time: 905 s

O=C(CSc1ccccn1)Nc1nc(-c2ccccc2)cs1
RP-LC retention time: 986 s

CCc1ccc(NC(=O)CSc2nc(N3CCCCC3)nc3ccccc23)cc1
RP-LC retention time: 809 s

CCOC(=O)C(C)Oc1ccc2c(=O)c(Oc3ccccc3OCC)coc2c1 (centres undefined)
RP-LC retention time: 971 s

COc1ccc(Cl)cc1S(=O)(=O)N1CCCC(C(=O)NCc2ccncc2)C1 (centres undefined)
RP-LC retention time: 622 s

Cc1ccc(CNC(=O)Nc2ccc(-c3nc(-c4ccc(C)cc4C)co3)cc2)cc1
RP-LC retention time: 1240 s

CCOC(=O)c1cc2c([nH]c1=O)CC(c1ccc(C)cc1)CC2=O (centres undefined)
RP-LC retention time: 780 s

O=C(NCc1ccc2c(c1)N(C(=O)c1ccccc1)CC2)NC1CCCC1
RP-LC retention time: 818 s

CCOc1ccc(N2C(=O)C3N=NN(Cc4nc(-c5ccccc5)no4)C3C2=O)cc1 (centres undefined)
RP-LC retention time: 885 s

COc1ccc(CN(Cc2ccccc2)Cc2cc(=O)n3ccc(C)cc3n2)cc1OC
RP-LC retention time: 662 s

O=C(NCc1cccs1)c1cccc2c1CCN2C(=O)c1ccc(F)cc1
RP-LC retention time: 858 s

Cc1cccc(NS(=O)(=O)c2cc(-c3[nH]ncc3C(=O)N3CCCC3)oc2C)c1C
RP-LC retention time: 725 s

Fc1ccc(-c2noc(-c3nnc(NCCCN4CCOCC4)c4ccccc34)n2)cc1
RP-LC retention time: 700 s

CCn1nccc1C(=O)N1CCCN(C2=NS(=O)(=O)C(c3ccc(C)cc3)=C2C)CC1
RP-LC retention time: 769 s

CC(C)(C)CC(=O)NCCn1c(=O)n(Cc2ccccc2)c2cccnc21
RP-LC retention time: 786 s

Cc1nc2ccn(Cc3cccnc3)c(=O)c2cc1C(=O)NC1CCCCC1
RP-LC retention time: 620 s

CCCn1cc(CCNS(=O)(=O)c2ccc(CC)cc2)c2cccnc21
RP-LC retention time: 935 s

CCn1cc(S(=O)(=O)N2CCC(c3nn(C)c(=O)n3C3CCCC3)CC2)cn1
RP-LC retention time: 717 s

Cn1cnc(S(=O)(=O)N2CC(n3cc(C(=O)NCC4CC4)nn3)C2)c1
RP-LC retention time: 622 s

O=C(Cn1c(=O)cnc2cc(C(=O)NC3CCCC3)ccc21)NCc1ccc(F)cc1F
RP-LC retention time: 721 s

Cc1oc(-c2[nH]ncc2C(=O)N2CCOCC2)cc1S(=O)(=O)N1CCCC1
RP-LC retention time: 616 s

COc1ccc(C)cc1NC(=O)C(=O)c1ccc[nH]1
RP-LC retention time: 982 s

CCc1nc(-c2ccc(-c3noc(-c4ccco4)n3)cc2)cs1
RP-LC retention time: 1170 s

O=C(CSc1ccc(N2CCCC(C(=O)NC3CC3)C2)nn1)Nc1cc(F)cc(F)c1 (centres undefined)
RP-LC retention time: 680 s

CC(C)n1c(-c2cccc(C(=O)NCc3ccco3)c2)nc2cccnc21
RP-LC retention time: 751 s

CCCN(C)C(=O)CCC1CCN(c2cc(NC3CC3)ncn2)CC1
RP-LC retention time: 648 s

O=C(NCCCN1CCCC1)c1c2c(nc3ccccc13)C(=O)N(C1CCCCC1)C2
RP-LC retention time: 595 s

CNC(=O)C1CCCN(C(=O)Nc2ccc(NC(=O)Nc3ccc(C)c(C)c3)cc2)C1 (centres undefined)
RP-LC retention time: 722 s

COc1cccc2cc(C(=O)Nc3nnc(Cc4ccc(Cl)s4)o3)oc12
RP-LC retention time: 860 s

O=C(CC(=O)Nc1ccc(F)cc1Cl)Nc1ccc2nc3n(c(=O)c2c1)CCCCC3
RP-LC retention time: 814 s

Cn1c(=O)c2nc(S(=O)(=O)CCC(=O)Nc3cccc(Br)c3)n(C)c2n(C)c1=O
RP-LC retention time: 750 s

CCCONC(=O)Nc1ccccc1[N+](=O)[O-]
RP-LC retention time: 787 s

CNC(=O)c1n[nH]c2c1CC(C)CC2 (centres undefined)
RP-LC retention time: 642 s

COC(=O)C1=C(C)N(C2CCCCC2)C(=O)C1(NC(=O)c1ccccc1OC)C(F)(F)F (centres undefined)
RP-LC retention time: 1090 s

O=C(NC1CCCC1)N1CCC2(CC1)N(c1ccccc1)C(=O)CS2=O (centres undefined)
RP-LC retention time: 648 s

Cc1sc(-c2ccn[nH]2)cc1NC(=O)c1ccc2nc[nH]c2c1
RP-LC retention time: 670 s

O=C(O)c1ccc(Nc2c(-c3ccccc3)nc3cnccn23)cc1
RP-LC retention time: 697 s

O=C(c1ccc(-n2cccn2)nn1)N1CCN(C(=O)c2ccco2)CC1
RP-LC retention time: 611 s

CSc1cccc(NC(=O)Cn2nc(-n3cccc3)c3c(C)cc(C)nc32)c1
RP-LC retention time: 1080 s

O=C(Cc1csc2nc(-c3ccccc3)cn12)Nc1ccc(F)cc1
RP-LC retention time: 774 s

Cc1ccc(NC(=O)C2CCCN(S(=O)(=O)c3c[nH]c(C(=O)N4CCCCCC4)c3)C2)cc1F (centres undefined)
RP-LC retention time: 652 s

CC(C)n1nccc1-c1nnc(NC(=O)C(C)(C)Oc2ccc(Cl)cc2)o1
RP-LC retention time: 903 s

COc1ccccc1-c1nc(-c2ccnc(N3CCOCC3)c2)no1
RP-LC retention time: 812 s

COC(=O)[C@H](Cc1c[nH]c2ccccc12)NC(=O)c1ccc2c(c1)C(=O)N(C1CC1)C2=O
RP-LC retention time: 830 s

CC1CCN(c2cc(-n3cnc(C(=O)NCc4ccco4)c3)ncn2)CC1
RP-LC retention time: 678 s

COc1cc(CNC(=O)c2ccc3c(c2)NC(=O)C2CCCCN32)cc(OC)c1OC (centres undefined)
RP-LC retention time: 726 s

CCOc1cccc(CNC(=O)c2cn3ccc(C)cc3n2)c1
RP-LC retention time: 671 s

Cc1noc(C)c1S(=O)(=O)N1CCC(n2c(C)cnc2-c2ccncc2)C1 (centres undefined)
RP-LC retention time: 616 s

Cc1ccc(CNC(=O)N2CCCC(Cn3cnc4cccnc43)C2)cc1 (centres undefined)
RP-LC retention time: 676 s

CC(C)c1cc(C(=O)Nc2cc(F)cc(F)c2)nc2ccnn12
RP-LC retention time: 1180 s

CCCn1cc(C(=O)Nc2ccc(OC)cc2)c(=O)c2ccc(C)nc21
RP-LC retention time: 1100 s

Cc1ccc(NC(=O)c2cn3c(n2)CCCC3)c(F)c1
RP-LC retention time: 720 s

CN(C)c1ncncc1N1CCC(C(=O)NCc2ccc(Cl)cc2)CC1
RP-LC retention time: 643 s

O=C(NCc1csc(C2CCCN(C(=O)COc3ccccc3)C2)n1)C1CC1 (centres undefined)
RP-LC retention time: 718 s

Cc1ccc(S(=O)(=O)Nc2cccc(-c3cn4cccc(C)c4n3)c2)c(C)c1
RP-LC retention time: 703 s

CC(=O)N1CCc2cc(-c3ccc(C(=O)NCCCN4CCCCC4C)cc3)ccc21 (centres undefined)
RP-LC retention time: 616 s

CC(C)CCn1c(=O)oc2ccccc21
RP-LC retention time: 928 s

CCn1nccc1C(=O)Nc1nc(-c2ccc(OC)cc2OC)cs1
RP-LC retention time: 926 s

Cc1ccc(NC(=O)c2ccccc2C(=O)O)cc1Br
RP-LC retention time: 768 s

CC1CN(C2CCCCC2)c2nc3c(c(=O)n(CC(=O)O)c(=O)n3C)n2C1 (centres undefined)
RP-LC retention time: 773 s

CC(O)c1nc2c(c(=O)n(C)c(=O)n2C)n1C (centres undefined)
RP-LC retention time: 622 s

Nc1ccccc1C(=O)NC(=O)Nc1ccc(Oc2ncc(Br)cn2)c(Cl)c1
RP-LC retention time: 946 s

CCc1noc(-c2ccc(-n3ncc(C(=O)N4CCCCCC4)c3C)nc2)n1
RP-LC retention time: 1010 s

Cc1ccc(CNC(=O)Nc2cc3c(cc2N2CCOCC2)n(C)c(=O)n3C)cc1
RP-LC retention time: 750 s

C[C@]12CC[C@H]3[C@@H](C[C@H](F)C4=CC(=O)CC[C@@]43C)[C@@H]1CC[C@@H]2O
RP-LC retention time: 798 s

CC1CCN(C(=O)C2c3ccccc3CCN2CC(=O)NCc2ccccc2)CC1 (centres undefined)
RP-LC retention time: 900 s

COc1ccc(-n2c(CSc3ncccn3)nnc2SCC(=O)NO)cc1
RP-LC retention time: 592 s

CC(C)CCn1c(CCCC(=O)N2CCC(C(N)=O)CC2)nc2cccnc21
RP-LC retention time: 598 s

CN(C)CCNC(=O)C(C)(C)Oc1ccc(Cl)cc1
RP-LC retention time: 629 s

CC(=O)N1CCc2cc(N3CC(C(=O)NCc4ccc(C(F)(F)F)cc4)CC3=O)ccc21 (centres undefined)
RP-LC retention time: 748 s

CCc1nc(-n2cccc2)sc1C(=O)Nc1cc(C)ccc1F
RP-LC retention time: 1180 s

CCc1noc(NC(C)=O)c1-c1ccc(OC)c(S(=O)(=O)N2CCCCCC2)c1
RP-LC retention time: 817 s

CCc1onc(C)c1C1CCCN1C(=O)c1c(OC)cccc1OC (centres undefined)
RP-LC retention time: 898 s

CCn1c(=O)c2c(cc(C)n2C)n(CC(=O)Nc2ccc(F)cc2F)c1=O
RP-LC retention time: 764 s

Cc1[nH]c(C(=O)Nc2ccc(F)c(Cl)c2)c(C)c1S(=O)(=O)N1CCCCC1
RP-LC retention time: 1020 s

COc1ccc(-c2c(C)noc2NC(C)=O)cc1S(=O)(=O)Nc1c(C)cc(C)cc1C
RP-LC retention time: 838 s
